In the NIST ThermoML archive (doi:10.1021/je8004613):

Experiment: xn = mol fraction of the nth substance listed
Conditions: 101 kPa, Liquid; for speed of sound: Pulse-echo method; for mass density: Vibrating tube method

COC(C)(C)C [2-methoxy-2-methylpropane] + CCCCCCCC
Conditions | mass density, 288.15 K [kg/m3] | mass density, 293.15 K [kg/m3] | mass density, 298.15 K [kg/m3] | mass density, 303.15 K [kg/m3] | mass density, 308.15 K [kg/m3] | speed of sound, 288.15 K [m/s] | speed of sound, 293.15 K [m/s] | speed of sound, 298.15 K [m/s] | speed of sound, 303.15 K [m/s] | speed of sound, 308.15 K [m/s]
x1 = 0.0681 | 708.15 | 704.08 | 700.01 | 695.91 | 691.79 | 1205.4 | 1184.6 | 1163.5 | 1142.6 | 1121.8
x1 = 0.1226 | 709.47 | 705.36 | 701.24 | 697.1 | 692.93 | 1198.4 | 1177.6 | 1156.3 | 1135.4 | 1114.7
x1 = 0.2056 | 711.65 | 707.48 | 703.29 | 699.07 | 694.83 | 1187.6 | 1166.7 | 1145.4 | 1124.3 | 1103.4
x1 = 0.3046 | 714.48 | 710.23 | 705.96 | 701.64 | 697.3 | 1174.2 | 1153.1 | 1131.8 | 1110.5 | 1089.4
x1 = 0.4001 | 717.54 | 713.19 | 708.81 | 704.4 | 699.96 | 1161.4 | 1140.2 | 1118.7 | 1097.1 | 1075.9
x1 = 0.4535 | 719.37 | 714.96 | 710.53 | 706.06 | 701.56 | 1154.3 | 1132.9 | 1111.2 | 1089.6 | 1068.2
x1 = 0.4947 | 720.85 | 716.4 | 711.92 | 707.4 | 702.84 | 1148.7 | 1127.2 | 1105.4 | 1083.8 | 1062.3
x1 = 0.5442 | 722.73 | 718.21 | 713.67 | 709.09 | 704.48 | 1142 | 1120.6 | 1098.7 | 1077 | 1055.3
x1 = 0.5996 | 724.94 | 720.36 | 715.75 | 711.1 | 706.42 | 1134.7 | 1113 | 1091 | 1069.1 | 1047.5
x1 = 0.6916 | 728.91 | 724.2 | 719.47 | 714.7 | 709.89 | 1122.5 | 1100.6 | 1078.4 | 1056.2 | 1034.3
x1 = 0.8001 | 734.16 | 729.3 | 724.41 | 719.47 | 714.49 | 1108.1 | 1085.8 | 1063.2 | 1040.8 | 1018.6
x1 = 0.9007 | 739.68 | 734.66 | 729.6 | 724.5 | 719.35 | 1095.1 | 1072.6 | 1049.6 | 1026.9 | 1004.2
x1 = 0.9487 | 742.54 | 737.44 | – | 727.1 | 721.86 | 1089 | 1066.2 | 1043.1 | 1020.1 | 997.3
